The supplement of paper PMC11061612

Experiments:
[1] = tested on: NCI-H2452 (Mesothelioma); experiment: Bliss excess, mean over the matrix (fraction); higher = more synergy
Outline: (§1)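 Bliss excess equals the observed combination effect minus the expected value EA + EB − EA·EB, where EA and EB are the effects of each agent alone. Combination Emax is the second-highest inhibition within the matrix. Inhibition was scaled from CellTiter-Glo 2.0 luminescence, with 0 set by vehicle wells and 1 by blank wells, after 72 hours of two-drug dosing of cells plated in 1536-well plates.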

[2] = tested on: SK-MEL-24 (Melanoma); experiment: as above
Outline: as §1

[3] = tested on: JURL-MK1 (Chronic Myelogenous Leukemia); experiment: as above
Outline: as §1

[4] = tested on: TOV-21G (Ovarian Carcinoma); experiment: as above
Outline: as §1

[5] = tested on: NCI-H1648 (Lung Adenocarcinoma); experiment: as above
Outline: as §1

[6] = tested on: NCI-H835 (Other Solid Carcinomas); experiment: as above
Outline: as §1

[7] = tested on: DK-MG (Glioblastoma); experiment: as above
Outline: as §1

[8] = tested on: SBC-5 (Small Cell Lung Carcinoma); experiment: as above
Outline: as §1

[9] = tested on: RS4-11 (B-Lymphoblastic Leukemia); experiment: as above
Outline: as §1

[10] = tested on: GCIY (Gastric Carcinoma); experiment: as above
Outline: as §1

[11] = tested on: ATN-1 (T-Lymphoblastic Leukemia); experiment: combination Emax (second highest fraction inhibited in the dose matrix, 72 h); higher = more inhibition; extreme values may be limits of the assay
Outline: as §1

[12] = tested on: SK-MEL-24 (Melanoma); experiment: as above
Outline: as §1

[13] = tested on: NTERA-2-cl-D1 (Other Solid Carcinomas); experiment: as above
Outline: as §1

[14] = tested on: KNS-62 (Squamous Cell Lung Carcinoma); experiment: as above
Outline: as §1

[15] = tested on: RPMI-8402 (T-Lymphoblastic Leukemia); experiment: as above
Outline: as §1

[16] = tested on: JURL-MK1 (Chronic Myelogenous Leukemia); experiment: as above
Outline: as §1

[17] = tested on: BC-1 (B-Cell Non-Hodgkin's Lymphoma); experiment: as above
Outline: as §1

[18] = tested on: GRANTA-519 (B-Cell Non-Hodgkin's Lymphoma); experiment: as above
Outline: as §1

[19] = tested on: SBC-3 (Small Cell Lung Carcinoma); experiment: as above
Outline: as §1

[20] = tested on: NTERA-2-cl-D1 (Other Solid Carcinomas); experiment: Bliss excess, mean over the matrix (fraction); higher = more synergy
Outline: as §1

SMILES | Bliss excess [1] | Bliss excess [2] | Bliss excess [3] | Bliss excess [4] | Bliss excess [5] | Bliss excess [6] | Bliss excess [7] | Bliss excess [8] | Bliss excess [9] | Bliss excess [10] | combination Emax [11] | combination Emax [12] | combination Emax [13] | combination Emax [14] | combination Emax [15] | combination Emax [16] | combination Emax [17] | combination Emax [18] | combination Emax [19] | Bliss excess [20]
C=CCn1c(=O)c2cnc(Nc3ccc(N4CCN(C)CC4)cc3)nc2n1-c1cccc(C(C)(C)O)n1 [AZD1775] + C1CN(CCC1(C(=O)N[C@@H](CCO)C2=CC=C(C=C2)Cl)N)C3=NC=NC4=C3C=CN4 [Capivasertib] (first compound max 3 µM, partner max 3 µM) | -0.116 | 0.0047 | 0.0007 | -0.0043 | -0.0257 | -0.0572 | -0.0023 | 0.0256 | 0.0201 | -0.0277 | 0.994 | 0.503 | 0.496 | 0.719 | 1 | 0.986 | 0.97 | 0.865 | 0.881 | 
CN(CCO)CC[C@H](CSc1ccccc1)Nc1ccc(S(=O)(=O)NC(=O)c2ccc(N3CCC([C@@H](O)c4ccccc4-c4ccc(Cl)cc4)CC3)cc2)cc1S(=O)(=O)C(F)(F)F [AZD4320] + Nc1ccn([C@@H]2O[C@H](CO)[C@@H](O)C2(F)F)c(=O)n1 [Gemcitabine] (first compound max 1 µM, 7x7, partner max 0.3 µM) | -0.0035 | -0.0082 |  |  | -0.0274 | 0.0682 |  |  |  | -0.0151 |  | 0.901 | 0.663 | 0.595 | 1 |  | 0.974 |  | 1 | -0.0239
Cc1cc2ncnn2cc1Nc1ncc2c(n1)n(C1CCOCC1)c(=O)n2C [AZD7648] + C=CCn1c(=O)c2cnc(Nc3ccc(N4CCN(C)CC4)cc3)nc2n1-c1cccc(C(C)(C)O)n1 [AZD1775] (first compound max 10 µM, partner max 1 µM) | 0.0647 | -0.015 | -0.0773 | -0.0672 | 0.0026 | 0.0229 | 0.0398 | -0.0136 | 0.0667 | -0.028 | 1 | 0.495 | 0.476 | 0.314 | 1 | 0.99 | 0.997 | 0.8 | 0.576 | -0.0791
Cc1cc2ncnn2cc1Nc1ncc2c(n1)n(C1CCOCC1)c(=O)n2C [AZD7648] + CCN(CCO)CCCOc1ccc2c(Nc3cc(CC(=O)Nc4cccc(F)c4)[nH]n3)ncnc2c1 [AZD2811] (first compound max 10 µM, 7x7, partner max 1 µM) | 0.001 | -0.0121 | -0.0046 | 0.0183 | 0.0369 | 0.0595 | 0.0189 | 0.057 | -0.0355 | 0.0949 | 0.832 | 0.373 | 0.554 | 0.326 | 0.886 | 0.601 | 0.871 | 0.414 | 0.564 | 0.012
Cc1cc2ncnn2cc1Nc1ncc2c(n1)n(C1CCOCC1)c(=O)n2C [AZD7648] + CN(C)CCCOc1ccc(-c2ccc3ncc4c(c3c2)n(C2CCOCC2)c(=O)n4C)cn1 [AZD0156] (first compound max 10 µM, 7x7, partner max 1 µM) | -0.0457 | -0.0325 | -0.0184 | -0.0047 | 0.0176 | 0.0086 | 0.0157 | 0.0236 | 0.0397 | -0.0458 | 0.481 | 0.28 | 0.484 | 0.235 | 0.382 | 0.406 | 0.634 | 0.249 | 0.482 | -0.0248
Cc1cc2ncnn2cc1Nc1ncc2c(n1)n(C1CCOCC1)c(=O)n2C [AZD7648] + COc1cc([C@@H]2c3cc4c(cc3[C@@H](O[C@@H]3O[C@@H]5CO[C@@H](C)O[C@H]5[C@H](O)[C@H]3O)[C@H]3COC(=O)[C@H]23)OCO4)cc(OC)c1O [Etoposide] (first compound max 10 µM, 7x7, partner max 10 µM) | 0.0449 | 0.0438 |  |  | -0.0577 | 0.024 |  |  |  | 0.125 |  | 0.677 | 0.575 | 0.456 | 1 |  | 0.984 |  | 0.94 | 0.137
Cc1cc2ncnn2cc1Nc1ncc2c(n1)n(C1CCOCC1)c(=O)n2C [AZD7648] + C[C@@H]1COCCN1C2=NC(=NC(=C2)C3(CC3)[S@](=N)(=O)C)C4=C5C=CNC5=NC=C4 [AZD6738] (first compound max 10 µM, 7x7, partner max 10 µM) | 0.0084 | 0.0523 | -0.0039 | 0.002 | -0.0379 | 0.0417 | 0.0297 | 0.0284 | -0.058 | 0.0524 | 0.995 | 0.509 | 0.617 | 0.526 | 0.988 | 1 | 0.941 | 0.808 | 0.71 | 0.0533
Cc1cc2ncnn2cc1Nc1ncc2c(n1)n(C1CCOCC1)c(=O)n2C [AZD7648] + O=C(c1cc(Cc2n[nH]c(=O)c3ccccc23)ccc1F)N1CCN(C(=O)C2CC2)CC1 [Olaparib] (first compound max 10 µM, 7x7, partner max 10 µM) | -0.0664 | -0.0533 | -0.0253 | -0.0363 | -0.0549 |  | -0.0126 | -0.034 | -0.0831 | -0.0554 | 0.356 | 0.211 | 0.534 | 0.149 | 0.561 | 0.543 | 0.385 | 0.251 | 0.451 | 0.0101
Cc1nc(Nc2ncc(C(=O)Nc3c(C)cccc3Cl)s2)cc(N2CCN(CCO)CC2)n1 [Dasatinib] + CC(=O)Nc1cccc(-n2c(=O)n(C3CC3)c(=O)c3c(Nc4ccc(I)cc4F)n(C)c(=O)c(C)c32)c1 [Trametinib] (first compound max 2 µM, 7x7, partner max 1 µM) | -0.0671 | 0.141 | -0.0029 | 0.0199 | 0.0135 | -0.0662 | -0.0685 | 0.025 | -0.0685 | 0.052 | 0.591 | 0.815 | 0.504 | 0.564 | 0.307 | 1 | 0.418 | 0.205 | 0.528 | 0.0638
COc1cc2ncnc(Nc3ccc(F)c(Cl)c3)c2cc1OCCCN1CCOCC1 [Gefitinib] + CC(C)n1c(=O)n(C)c2cnc3cc(F)c(-c4ccc(OCCCN5CCCCC5)nc4)cc3c21 [AZD1390] (first compound max 10 µM, 7x7, partner max 0.3 µM) | -0.108 | -0.0831 | -0.0586 | -0.084 | -0.0521 | -0.0381 | -0.0817 | -0.0649 | -0.0484 | 0.0145 | 0.296 | 0.246 | 0.284 | 0.0888 | 0.56 | 0.499 | 0.601 | 0.201 | 0.107 | -0.0643
COc1cc2c(cc1OCCCCCOc1cc3c(cc1OC)C(=O)N1C=C(C)C[C@H]1C=N3)N=C[C@@H]1CC(C)=CN1C2=O [SG3199] + O=C(c1cc(Cc2n[nH]c(=O)c3ccccc23)ccc1F)N1CCN(C(=O)C2CC2)CC1 [Olaparib] (first compound max 0.001 µM, 7x7, partner max 10 µM) | -0.117 | -0.0576 | -0.0007 | -0.0322 | -0.0282 | -0.0406 | -0.0446 | -0.0193 | 0.0338 | -0.0152 | 0.0857 | 0.129 | 0.457 | 0.0885 | 0.435 | 0.418 | 0.181 | 0.324 | 0.478 | -0.0586
N#Cc1cnc(Nc2cc(NC[C@H]3CNCCO3)c(C(F)(F)F)cn2)cn1 [SRA737] + C=CCn1c(=O)c2cnc(Nc3ccc(N4CCN(C)CC4)cc3)nc2n1-c1cccc(C(C)(C)O)n1 [AZD1775] (first compound max 10 µM, partner max 1 µM) | -0.0018 | -0.0375 |  |  | -0.0116 | 0.01 |  |  |  | 0.033 |  | 0.46 | 0.483 | 0.53 | 1 |  | 0.988 |  | 0.86 | 0.0209
N#Cc1cnc(Nc2cc(NC[C@H]3CNCCO3)c(C(F)(F)F)cn2)cn1 [SRA737] + CCc1c2c(nc3ccc(O)cc13)-c1cc3c(c(=O)n1C2)COC(=O)[C@]3(O)CC [SN-38] (first compound max 10 µM, 7x7, partner max 0.3 µM) | 0.0683 | -0.0221 |  |  |  | -0.0262 |  |  |  | -0.0331 |  | 0.73 | 0.624 | 0.866 | 1 |  | 0.952 |  | 0.935 | -0.0004
N#Cc1cnc(Nc2cc(NC[C@H]3CNCCO3)c(C(F)(F)F)cn2)cn1 [SRA737] + Nc1ccn([C@@H]2O[C@H](CO)[C@@H](O)C2(F)F)c(=O)n1 [Gemcitabine] (first compound max 10 µM, 7x7, partner max 0.3 µM) | 0.0892 | 0.0307 |  |  | 0.0912 | -0.0363 |  |  |  | -0.0085 |  | 0.814 | 0.54 | 0.608 | 1 |  | 0.979 |  | 0.97 | 0.0301
N#Cc1cnc(Nc2cc(NC[C@H]3CNCCO3)c(C(F)(F)F)cn2)cn1 [SRA737] + O=c1[nH]cc(F)c(=O)[nH]1 [5-Fluorouracil] (first compound max 10 µM, 7x7, partner max 20 µM) | 0.0571 | -0.0047 |  |  | -0.0515 | 0.0621 |  |  |  | -0.0044 |  | 0.314 | 0.464 | 0.382 | 1 |  | 0.739 |  | 0.66 | -0.0757
